Experimental data from patent US20250387359A1, “COMPOUNDS AND METHODS FOR THE TREATMENT OF PARASITIC INFECTIONS” (THE BOARD OF TRUSTEES OF THE UNIVERSITY OF ILLINOIS, priority 2019, published 2025).

Key:
[1] = target: recombinant CpLDH protein (Cryptosporidium parvum, UniProt Q9GT92, F198L/K295E/R251K); assay: biochemical; format: biochemical
Description: Biochemical assays. The coding sequence of CpLDH was cloned from cDNA prepared from the AUCP-1 isolate of C. parvum, and the His-tagged CpLDH recombinant protein expressed in Escherichia coli, and purified in native form essentially as previously described (Int. J. Parasitol. 2017; 47(13), 867-874). Briefly, cDNA was prepared from total RNA extracted from the AUCP-1 isolate of C. parvum, and the coding sequencing of CpLDH (Genebank accession number AF274310.1) was PCR-amplified from the cDNA using a primer pair with a XhoI restriction site and a BamHI site. The PCR amplicon was cloned at the XhoI/BamHI site of the pET15b expression vector in-frame with the hexahistidine (His-tag) at the N-terminal and sequenced to confirm identity. The recombinant expression vector was transformed into protein expression E. coli BL21-CodonPlus-DE3-RIL (Stratagene). Transformed E. coli was cultured at 37° C. in Luria broth medium (supplemented with 100 μg/ml ampicillin and 34 μg/ml chloramphenicol) to an A600 of 0.8 followed by addition of 1 mM isopropyl-β-d-thiogalactopyranoside to induce protein expression. The expression E. coli was harvested and lysed under native conditions by sonicating in lysis buffer (50 mM NaH2PO4, 300 mM NaCl, 10 mM Imidazole, pH 8.0) containing a 1× EDTA-free protease inhibitor cocktail, 600 units benzonase and 30 kU lysozyme (EMD Millipore). The lysate was clarified by centrifugation and the His-tagged recombinant protein purified under native conditions by nickel-affinity chromatography according to the manufacturer's instructions (Novagen). The wash buffer used contained 50 mM NaH2PO4, 300 mM NaCl and 20 mM Imidazole, pH 8.0, while the elution buffer was composed of 50 mM NaH2PO4, 300 mM NaCl, 250 mM Imidazole, pH 8.0. The eluate was dialyzed using a buffer containing 5 mM Hepes-KOH (pH 7.8) and 0.5 mM DTT. The purity of the recombinant protein was determined by SDS/PAGE, and the concentration measured using a Qubit 3.0 fluorometer (Life technologies). […] On the other hand, the catalytic activity of CpLDH recombinant protein for the oxidation of lactate to pyruvate was determined by measuring the change in optical density of a 100 μl reaction mixture containing 100 mM lactate, 1 mM NAD^+, 100 mM Tris, pH 9.2, with varying concentrations of CpLDH recombinant protein at 25° C. […] In all assays, reaction mixtures without recombinant CpLDH protein were included as negative controls. All assays were performed in triplicate and repeated at least thrice. The change in optical density was measured every 15 seconds for a total of 2 minutes using a Spectra Max 384 Plus plate reader (Molecular Devices) at a wavelength of 340 nm.
Screening compounds for inhibitory activity against CpLDH. The chemical compounds were obtained from the National Cancer Institute/Developmental Therapeutics Program Open Chemical Repository. They consisted of a diverse set of compounds (n=27) reported previously (Int J Parasitol Drugs Drug Resist. 2016; 6(1), 44-53), and a Mechanistic Set IV compounds (n=800). The compounds were reconstituted in dimethyl sulfoxide (DMSO) as stock solutions. Just before use, aliquots of the stock solutions were diluted in sterile distilled water to generate working solutions, such that the final amount of DMSO added to the reaction mixtures was less than 1% (V/V). The compounds were tested for their inhibitory effect against the enzymatic activity of recombinant His-tagged CpLDH for catalyzing the reduction of pyruvate to lactate. […] Control reactions without recombinant CpLDH protein were included. Reactions were performed in triplicate and repeated at least thrice. The change in optical density was measured every 15 seconds for a total of 2 minutes using a Spectra Max 384 Plus plate reader (Molecular Devices) at a wavelength of 340 nm.

[2] = Compound cytotoxicity assay (WST-1) in HCT-8 cells; format: cell-based, human; details: human; HCT-8 cells, 24 h, WST-1
Description: Compound cytotoxicity assay. […] A colorimetric assay using the cell proliferation reagent WST-1 (Roche, USA) for the quantification of cell viability was performed. […] When the cells were confluent, the old medium was replaced with fresh medium with or without varying concentrations of chemical compound. After 24 h of culture, 10 μl of the cell proliferation reagent WST-1, (for quantification of cell viability) was added to each well, mixed and the plates incubated for 1 h at 37 C with 5% CO2 in the dark. […] Molecular Devices, USA).

Sequence of recombinant CpLDH protein (Q9GT92 whole entry F198L/K295E/R251K): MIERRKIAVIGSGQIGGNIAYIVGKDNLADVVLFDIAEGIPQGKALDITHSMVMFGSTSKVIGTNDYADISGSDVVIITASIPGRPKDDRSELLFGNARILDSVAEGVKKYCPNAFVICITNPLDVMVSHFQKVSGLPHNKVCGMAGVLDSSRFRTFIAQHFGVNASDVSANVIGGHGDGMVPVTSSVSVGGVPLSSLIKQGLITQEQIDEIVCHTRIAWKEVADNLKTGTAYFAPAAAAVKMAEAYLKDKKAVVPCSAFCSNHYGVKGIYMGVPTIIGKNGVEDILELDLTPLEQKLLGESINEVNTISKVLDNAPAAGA

## O=C1c2ccccc2C(=O)c2c(O)c(O)cc(O)c21 [NSC10447]
[1]
  IC50: 46.3 µM
[1]; 20 μM compound, 10 mM pyruvate, 1 mM NADH
  effect on catalytic activity of recombinant CpLDH: significant (P<0.05) inhibitory effect
[2]
  IC50 at 24 h: 290 µM
